Assays:
[1] = test system: deposition of melanin pigmentation; test: Examination for depigmentation effect: lotion applied to skin after sunlight exposure, judged by the subjects; assay type: in vivo; details: for DEPIGMENTATION EFFECT / DEPI[…]: lotion with 1.0 weight% compound; for effect to prevent the deposition of melanin pigmentation after the skin was exposed to the sunlight: in words, text summary of the tables, test lotions compared with hydroquinone, tranexamic acid and no compound
Experimental: 60 subjects were disposed under sunlight for 4 hours in summer (2 hours × 2 days). The lotions were applied to skin of medial brachia for once in each morning and evening from 5 days after the day when the skin was exposed to the sun light for eight weeks. The one group consists of 10 subjects and six groups were given for the examination in accordance with the following prescriptions. […] The aqueous phase and the alcohol phase were prepared respectively, and both phase were mixed and dissolved. […] X: The number of subjects who judged the result was "extremely effective" and "effective" were less than 30 %. TABLE 1 Depigmentation effect was examined by using the following external preparations for skin in accordance with the above described condition. […] The alcohol phase and aqueous phase were prepared respectively, and both phase were mixed and dissolved. TABLE 3 Depigmentation effect was examined by using the following external preparations for skin in accordance with the above described condition. […] The alcohol phase and aqueous phase were prepared respectively, and both phase were mixed and dissolved.

face of subjects = test: Examination for skin care effect: half-face application against comparison 1, judged by the subjects; assay type: in vivo, women
Experimental: One group of subjects consists of ten women and 3 groups of the subjects were given for the examination.
The effectiveness of three items (moisturising effect, texture of skin surface, maintenance (one day) of moisturising effect) were evaluated according to the following standards.
Ⓞ: The number of subjects who judged the result was "extremely effective" and "effective" were not less than 80 %. ○: The number of subjects who judged the result was "extremely effective" and "effective" were from 50% to 80%. △: The number of subjects who judged the result was "extremely effective" and "effective" were from 30% to 50%. X: The number of subjects who judged the result was "extremely effective " and "effective" were less than 30%.
Skin care effect of the examples was examined in accordance with the above-mentioned condition.

[2] = TABLE 3, same condition as TABLE 1
[3] = TABLE 5, same condition as TABLE 1
[4] = TABLE 1, skin of medial brachia, morning and evening for eight weeks from 5 days after sunlight exposure (4 hours), 10 subjects per group
[5] = TABLE 2, lotion with 1.0 weight% compound on left half of face, every morning and night for two weeks, ten women per group
[6] = TABLE 2, maintenance (one day), lotion with 1.0 weight% compound on left half of face, every morning and night for two weeks, ten women per group
[7] = TABLE 6, lotion with 1.0 weight% compound, same condition as TABLE 2
[8] = TABLE 4, lotion with 1.0 weight% compound, same condition as TABLE 2

Compound	DEPIGMENTATION EFFECT [1, 3]	DEPIGMENTATION EFFECT [1, 4]	effect to prevent the deposition of melanin pigmentation after the skin was exposed to the sunlight [1]	MOISTURISING EFFECT (face of subjects; [5])	TEXTURE OF SKIN SURFACE (face of subjects; [5])	MAINTENANCE OF MOISTURISING EFFECT (face of subjects; [6])	other results
NC[C@H]1CC[C@H](C(=O)O)CC1 [COMP.3, tranexamic acid]	△ (The number of subjects who judged the result was "extremely effective" and "effective" were from 30% to 50%.)						DEPIGMENTATION EFFECT [1, 2]: ○ (The number of subjects who judged the result was "extremely effective" and "effective" were from 50% to 80%.)
Cl.NC[C@H]1CC[C@H](C(=O)Oc2ccc(O)cc2C(=O)O)CC1 [EXM.1-3, 2-(trans-4-aminomethylcyclohexylcarbonyloxy)-5-hydroxy benzoic acid hydrochloride]		Ⓞ (The number of subjects who judged the result was "extremely effective" and "effective" were not less than 80%.)	excellent	Ⓞ (The number of subjects who judged the result was "extremely effective" and "effective" were not less than 80 %.)	Ⓞ (The number of subjects who judged the result was "extremely effective" and "effective" were not less than 80 %.)	Ⓞ (The number of subjects who judged the result was "extremely effective" and "effective" were not less than 80 %.)	
4'-hydroxy phenyl trans-4-aminomethyl cyclohexane carboxylate hydrochloride [EXM.3-2]	Ⓞ (The number of subjects who judged the result was "extremely effective" and "effective" were not less than 80%.)						MAINTENANCE OF MOISTURISING EFFECT (face of subjects; [7]): Ⓞ (The number of subjects who judged the result was "extremely effective" and "effective" were not less than 80 %.); MOISTURISING EFFECT (face of subjects; [7]): Ⓞ (The number of subjects who judged the result was "extremely effective" and "effective" were not less than 80 %.); TEXTURE OF SKIN SURFACE (face of subjects; [7]): Ⓞ (The number of subjects who judged the result was "extremely effective" and "effective" were not less than 80 %.)
NC[C@H]1CC[C@H](C(=O)Oc2ccc(O)cc2C(=O)O)CC1 [EXM.1-1, 2-(trans-4-aminomethylcyclohexylcarbonyloxy)-5-hydroxy benzoic acid]		Ⓞ (The number of subjects who judged the result was "extremely effective" and "effective" were not less than 80%.)	excellent	Ⓞ (The number of subjects who judged the result was "extremely effective" and "effective" were not less than 80 %.)	Ⓞ (The number of subjects who judged the result was "extremely effective" and "effective" were not less than 80 %.)	Ⓞ (The number of subjects who judged the result was "extremely effective" and "effective" were not less than 80 %.)	
NC[C@H]1CC[C@H](C(=O)Oc2ccc(O)cc2)CC1 [EXM.3-1, 4'-hydroxy phenyl trans-4-aminomethyl cyclohexane carboxylate]	Ⓞ (The number of subjects who judged the result was "extremely effective" and "effective" were not less than 80%.)						MAINTENANCE OF MOISTURISING EFFECT (face of subjects; [7]): Ⓞ (The number of subjects who judged the result was "extremely effective" and "effective" were not less than 80 %.); MOISTURISING EFFECT (face of subjects; [7]): Ⓞ (The number of subjects who judged the result was "extremely effective" and "effective" were not less than 80 %.); TEXTURE OF SKIN SURFACE (face of subjects; [7]): Ⓞ (The number of subjects who judged the result was "extremely effective" and "effective" were not less than 80 %.)
NC[C@H]1CC[C@H](C(=O)Oc2ccc(O)c(C(=O)O)c2)CC1 [EXM.1-2, 5-(trans-4-aminomethylcyclohexylcarbonyloxy)-2-hydroxy benzoic acid]		Ⓞ (The number of subjects who judged the result was "extremely effective" and "effective" were not less than 80%.)	excellent	Ⓞ (The number of subjects who judged the result was "extremely effective" and "effective" were not less than 80 %.)	Ⓞ (The number of subjects who judged the result was "extremely effective" and "effective" were not less than 80 %.)	Ⓞ (The number of subjects who judged the result was "extremely effective" and "effective" were not less than 80 %.)	
NC[C@H]1CC[C@H](C(=O)NC[C@H]2CC[C@H](C(=O)O)CC2)CC1 [EXM.2-1, Trans-4-(trans-4-aminomethylcyclohexanecarbonyl) aminomethyl cyclohexane carboxylic acid]							DEPIGMENTATION EFFECT [1, 2]: Ⓞ (The number of subjects who judged the result was "extremely effective" and "effective" were not less than 80%.); MAINTENANCE OF MOISTURISING EFFECT (face of subjects; [8]): Ⓞ (The number of subjects who judged the result was "extremely effective" and "effective" were not less than 80 %.); MOISTURISING EFFECT (face of subjects; [8]): Ⓞ (The number of subjects who judged the result was "extremely effective" and "effective" were not less than 80 %.); TEXTURE OF SKIN SURFACE (face of subjects; [8]): Ⓞ (The number of subjects who judged the result was "extremely effective" and "effective" were not less than 80 %.)
Oc1ccc(O)cc1 [COMP.2, hydroquinone, reference compound]							DEPI[…] [1, 4]: △ (The number of subjects who judged the result was "extremely effective" and "effective" were from 30% to 50%.); DEPI[…] [1, 2]: △ (The number of subjects who judged the result was "extremely effective" and "effective" were from 30% to 50%.); DEPI[…] [1, 3]: △ (The number of subjects who judged the result was "extremely effective" and "effective" were from 30% to 50%.)
